Laboratory results as given in patent US20070122422A1, “Sodium-independent small neutral amino acid transporter transporting L- and D- amino acids” (Japan Science and Technology Corporation, priority 2000, published 2007).

Experiments:
Assay type in all cases: cell-based
[1] = molecular target: T1, asc-1 of mouse (co-expressed with 4F2hc of mouse) (Mus musculus, UniProt P63115); experiment: Inhibition of 14C-alanine incorporation by added amino acids and analogs in oocytes co-expressing asc-1 and 4F2hc; conditions: 14C-alanine 50 μM; 5 mM non-labeled compound; Na+-free uptake solution
T1 construct: expressed in transfected cells; host or cells: Xenopus oocytes injected with cRNA
T1 sequence (P63115 1-530): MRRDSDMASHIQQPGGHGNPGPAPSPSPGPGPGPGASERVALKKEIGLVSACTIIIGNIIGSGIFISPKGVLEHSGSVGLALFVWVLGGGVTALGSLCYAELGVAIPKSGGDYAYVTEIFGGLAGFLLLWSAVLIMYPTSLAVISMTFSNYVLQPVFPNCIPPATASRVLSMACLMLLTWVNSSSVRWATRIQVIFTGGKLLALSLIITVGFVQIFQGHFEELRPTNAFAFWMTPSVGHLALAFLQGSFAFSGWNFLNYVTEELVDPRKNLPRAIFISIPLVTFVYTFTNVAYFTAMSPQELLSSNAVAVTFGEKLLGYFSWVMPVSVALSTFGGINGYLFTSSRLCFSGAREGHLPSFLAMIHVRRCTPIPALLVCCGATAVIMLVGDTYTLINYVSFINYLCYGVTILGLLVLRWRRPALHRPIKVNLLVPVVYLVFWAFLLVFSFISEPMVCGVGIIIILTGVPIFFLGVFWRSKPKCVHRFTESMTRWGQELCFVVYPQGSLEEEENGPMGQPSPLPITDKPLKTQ
T1 sequence (P10852 1-526 partner): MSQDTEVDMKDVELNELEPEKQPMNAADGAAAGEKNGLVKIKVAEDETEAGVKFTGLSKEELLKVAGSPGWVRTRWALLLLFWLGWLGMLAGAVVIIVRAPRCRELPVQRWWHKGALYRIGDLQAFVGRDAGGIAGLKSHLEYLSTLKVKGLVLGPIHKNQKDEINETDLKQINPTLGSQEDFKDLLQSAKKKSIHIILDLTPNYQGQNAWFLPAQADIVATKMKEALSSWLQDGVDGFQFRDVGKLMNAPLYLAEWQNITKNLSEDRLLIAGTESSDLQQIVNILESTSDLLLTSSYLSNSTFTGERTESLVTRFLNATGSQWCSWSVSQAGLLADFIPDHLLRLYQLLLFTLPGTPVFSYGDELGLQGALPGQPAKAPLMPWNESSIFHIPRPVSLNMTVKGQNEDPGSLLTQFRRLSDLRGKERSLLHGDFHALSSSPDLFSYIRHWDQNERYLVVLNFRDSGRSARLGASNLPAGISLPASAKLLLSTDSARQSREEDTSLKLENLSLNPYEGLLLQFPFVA
Description: (§1) Into oocytes were injected 12 ng of asc-1 gene cRNA of mouse, 13 ng of 4F2hc gene cRNA of mouse or 12 ng asc-1 gene cRNA of mouse/13 ng of 4F2hc gene cRNA of mouse to express followed by incubating for 3 days. […] Thus, the oocytes were allowed to stand for 30 minutes in a Na^+-free uptake solution [100 mM choline chloride, 2 mM potassium chloride, 1.8 mM calcium chloride, 1 mM magnesium chloride, 5 mM HEPES; pH 7.4] containing ^14C-alanine (100 μM) as a substrate and the rate of the substrate incorporated into the cells was measured by way of counting the radioactivity incorporated thereinto.
In an experiment of incorporation of alanine by oocytes into which both asc-1 gene cRNA of mouse and 4F2hc gene cRNA of mouse were injected, influence of addition of various amino acid and analogs thereof was investigated.
In an experiment of incorporation of alanine, a method according to that mentioned in the above Example 2(1) was carried out using oocytes into which both asc-1 gene cRNA of mouse and 4F2hc gene cRNA of mouse were injected. Here, a Na^+-free uptake solution was used and incorporation of ^14C-alanine (50 μM) was measured in the presence and absence of 5 mM of various compounds (non-labeled).

[2] = molecular target: T1, asc-1 of mouse (co-expressed with 4F2hc of mouse); experiment: Incorporation of radiolabeled amino acids and analogs by oocytes co-expressing asc-1 and 4F2hc; conditions: for incorporation into the oocytes as substrate: radiolabeled substrate, oocytes expressing both asc-1 and 4F2hc, Na+-free uptake solution; for transport by asc-1 (affinity in words): summary statement, asc-1 co-existing with 4F2hc
Description: Incorporation of alanine when asc-1 gene cRNA of mouse was solely expressed in oocytes of Xenopus and when asc-1 gene cRNA of mouse and 4F2hc gene cRNA of mouse were expressed in oocytes of Xenopus together was compared.
as §1
In an experiment of incorporation of alanine by oocytes into which both asc-1 gene cRNA and 4F2hc gene cRNA of mouse were injected together, influence of the salt added to the medium was investigated.
The experiment of incorporation of alanine was carried out in accordance with the method mentioned in the above Example 2(1) using oocytes into which both asc-1 gene cRNA and 4F2hc gene cRNA of mouse were injected together. When the influence of sodium ion was checked however, a standard uptake solution (where 100 mM choline chloride was substituted with 100 mM sodium chloride) was used in place of the Na^+-free uptake solution as the uptake solution. When the influence of chlorine ion was checked, a gluconic acid uptake solution (where 100 mM sodium chloride was substituted with 100 mM sodium gluconate) was used in place of the standard uptake solution.
Incorporation by asc-1 was investigated using various amino acids and analogs thereof as substrates. Experiment for incorporation of various amino acids and analogs thereof was carried out according to the method mentioned in the above Example 2(1) using oocytes into which asc-1 gene cRNA of mouse and 4F2hc gene cRNA of mouse were injected together. With regard to the substrates however, various compounds labeled with radioactivity were used in place of ^14C-alanine.
Influence of pH was checked in an experiment for incorporation of alanine by oocytes into which both asc-1 gene cRNA and 4F2hc gene cRNA of mouse were injected together. With regard to an experiment for incorporation of alanine, the method according to that mentioned in the above Example 2 (1) was carried out using oocytes into which both asc-1 gene cRNA of mouse and 4F2hc gene cRNA of mouse were injected together.

[3] = molecular target: T2, human asc-1 (co-expressed with human 4F2hc) (Homo sapiens, UniProt Q9NS82); experiment: Incorporation of 14C-alanine by oocytes co-expressing human asc-1 and human 4F2hc; conditions: oocytes where both human asc-1 and 4F2hc were expressed together
T2 construct: expressed in transfected cells
T2 sequence (Q9NS82 1-523): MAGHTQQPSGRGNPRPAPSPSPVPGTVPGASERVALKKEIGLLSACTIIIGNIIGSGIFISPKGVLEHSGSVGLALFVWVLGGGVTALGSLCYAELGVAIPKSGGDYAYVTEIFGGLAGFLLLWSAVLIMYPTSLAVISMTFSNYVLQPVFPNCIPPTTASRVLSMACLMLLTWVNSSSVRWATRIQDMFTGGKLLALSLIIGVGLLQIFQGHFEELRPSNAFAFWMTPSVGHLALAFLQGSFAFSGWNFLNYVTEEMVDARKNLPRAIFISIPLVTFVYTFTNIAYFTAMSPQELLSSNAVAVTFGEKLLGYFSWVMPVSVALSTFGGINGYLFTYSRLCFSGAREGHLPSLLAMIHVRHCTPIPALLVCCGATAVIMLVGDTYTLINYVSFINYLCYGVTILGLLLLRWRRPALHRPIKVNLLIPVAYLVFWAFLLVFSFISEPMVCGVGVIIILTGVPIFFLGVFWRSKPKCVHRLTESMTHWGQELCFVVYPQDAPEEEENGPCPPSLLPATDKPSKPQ
Description: Comparison was made between incorporation of ^14C-alanine in the case where human asc-1 gene cRNA was solely expressed in oocytes with that in the case where both human asc-1 gene cRNA and human 4F2hc gene cRNA were expressed in oocytes. Expression was carried out by injection of 12.5 ng of human asc-1 gene cRNA, 12.5 ng of human 4F2hc gene cRNA or 12.5 ng of human asc-1 gene cRNA/12.5 ng of human 4F2hc gene cRNA into oocytes and incubation was conducted for three days. With regard to the oocytes into which human asc-1 gene cRNA, 4F2hc gene cRNA or human asc-1 gene cRNA/4F2hc gene cRNA was injected, an experiment for incorporation of substrate was carried out according to Example 2(1) using alanine as a substrate.

`C[C@H](N)C(=O)O` [L-Alanine] was tested, and the “inhibition of incorporation of 14C-alanine mediated by asc-1” value [1] was “particularly strongly inhibited”, the “influence of pH on incorporation of alanine” value [2] was “no significant dependency on pH” and the “influence of salt on incorporation of alanine” value ([2]; choline changed to sodium, chlorine ion changed to gluconic acid ion) was “does no affect”. The “incorporation into the oocytes as substrate” value [2] was “big incorporation”, the “transport by asc-1 (affinity in words)” value [2] was “highly affinitive” and the incorporation of alanine [3] was “big incorporation”.

In the case of `N[C@@H](CO)C(=O)O` [L-Serine], the “inhibition of incorporation of 14C-alanine mediated by asc-1” value [1] is reported as “particularly strongly inhibited”, the “incorporation into the oocytes as substrate” value [2] is reported as “big incorporation” and the “transport by asc-1 (affinity in words)” value [2] is reported as “highly affinitive”.
